Measurements as given in US20050282840A1, “Methods of modulating neurotrophin-mediated activity” (PainCeptor Pharma Corporation, priority 2004, published 2005).
Read-outs that look alike come from different tables or passages of the source.

Columns and labels:
[1] = biological target: T1, p75^NTR receptors (PC12 cells) (Rattus norvegicus, UniProt P07174); assay: Basic screening assay: binding of 125I-BDNF to PC12 cells; details: read-out: BDNF Activity % Maximal Binding
T1 construct: endogenous in cells; host or cells: PC12 cells
T1 sequence (P07174 30-425): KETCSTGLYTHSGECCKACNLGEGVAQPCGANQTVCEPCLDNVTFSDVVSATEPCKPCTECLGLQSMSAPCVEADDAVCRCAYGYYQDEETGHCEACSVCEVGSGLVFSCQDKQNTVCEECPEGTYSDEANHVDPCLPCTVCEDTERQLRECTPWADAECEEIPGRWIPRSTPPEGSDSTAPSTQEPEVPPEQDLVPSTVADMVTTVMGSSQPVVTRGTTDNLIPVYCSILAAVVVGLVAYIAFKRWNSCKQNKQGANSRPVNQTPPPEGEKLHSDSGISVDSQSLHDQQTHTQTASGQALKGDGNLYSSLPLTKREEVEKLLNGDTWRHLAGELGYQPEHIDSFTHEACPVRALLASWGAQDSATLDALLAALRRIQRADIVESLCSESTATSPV
T1 sequence (P23560 129-247 partner): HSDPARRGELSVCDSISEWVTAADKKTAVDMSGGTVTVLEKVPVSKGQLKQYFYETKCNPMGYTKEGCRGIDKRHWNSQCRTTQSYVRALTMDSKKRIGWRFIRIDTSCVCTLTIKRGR
Protocol: (§1) The compounds were screened for effects on binding of ^125I-BDNF or ^125I-NGF to PC12 cells (p75^NTR receptors), and those that inhibited binding were further tested to determine the EC50 for this inhibition.
(§2) PC12 cells were cultured and prepared for binding assays as described in Example 1.
(§3) Lypophilized Peprotech human recombinant BDNF (Cedarlane Laboratories, Toronto, Canada, cat. # PE 450-02-10) was reconstituted under sterile conditions to 3.5 μM in sterile HKR/1%BSA, and either used immediately or stored in aliquots of 20 μl at −80° C. Immediately prior to use, a 15 nM (30×) solution of ^125I-BDNF or ^125I-NGF was prepared in HKR buffer, and was used at 0.5 nM final concentration.
(§4) Test Compounds were dissolved to 10 mM in DMSO, and those that were not initially soluble were warmed to 40-50° C. and vortexed. Those compounds that were still not in solution were reported as such. Compounds were then stored in this form at −20° C. until use. Immediately before experiments, 100 mM compounds were diluted to 10 mM in DMSO (1:10), followed by a further dilution to 1 mM (1:10) with distilled water, and a further dilution to 500 μM (1:1) with HKR.
(§5) Assays to determine maximum binding (Bmax), non-specific binding (NSB), and binding in the presence of each test compound (e.g., x, y) were performed at least in duplicate. In a total volume of 300 μL, 4×10^6 PC12 cells were incubated, rotating for 2 h at 4° C. with the following:
(§6) At the conclusion of the binding reaction, 100 μL aliquots of the reaction mixtures were carefully layered over 200 μL of a 10% glycerol solution in a 0.4 mL tube, and subjected to centrifugation in a microcentrifuge for 2 minutes at half maximum speed. The cell pellets containing the bound ^125I-BDNF or ^125I-NGF were then measured using a gamma counter. The mean values of the replicates were then calculated to determine the value for maximum binding (Bmax) and nonspecific binding (NSB), and binding in the presence of test compound at 50 μM (Bx). Specific binding (SB) was measured by subtracting the NSB from the Bmax.

[2] = test system: p75^NTR receptors (PC12 cells); assay: Basic screening assay: binding of 125I-NGF to PC12 cells; details: test compound 50 μM, 0.5 nM 125I-NGF, PC12 cells, 2 h at 4° C., specific binding as percent of control
Protocol: as §1, §2
Lyophilized Serotec mouse 2.5S NGF (Cedarlane Laboratories, Toronto, Canada, cat. # PMP 04Z) was reconstituted under sterile conditions to 1 mg/mL (38 μM) in sterile 0.2% acetic acid, and 100 μL or 50 μL aliquots were stored frozen at −80° C.
as §3, §4, §5
as §6, with “Bmax. Specific binding in the presence of the test compound (SBx) was determined by subtracting the NSB from the Bx for each test compound; and each SBx was divided by SB and multiplied by 100 to give the specific binding in the presence of the compound as a percent of control specific binding.” for “Bmax.”

[3] = Table 2, test compound 50 μM, 0.5 nM 125I-BDNF, PC12 cells, 2 h at 4° C., specific binding as percent of control
[4] = Table 4, test compound 50 μM, 0.5 nM 125I-BDNF, PC12 cells, 2 h at 4° C., specific binding as percent of control
[5] = Table 1, test compound 50 μM, 0.5 nM 125I-BDNF, PC12 cells, 2 h at 4° C., specific binding as percent of control

Compound | activity at 50 µM [1, 4] [%] | NGF Activity % Maximal Binding ([2]; Table 4) | activity at 50 µM [1, 5] [%] | NGF Activity % Maximal Binding ([2]; Table 1) | other results
COC(=O)CN1C(=O)S/C(=C/c2ccc(-c3ccc(C(=O)O)c(Cl)c3)o2)C1=O [Compound 67, 2-Chloro-4-[5-(3-methoxycarbonylmethyl-2,4-dioxo-thiazolidin-5-ylidenemethyl)furan-2-yl]benzoic acid] |  |  |  |  | activity at 50 µM [1, 3]: 0 to 10%; NGF Activity % Maximal Binding ([2]; Table 2): XX (30 < XX < 40)
CCOC(=O)CN1C(=O)S/C(=C/c2ccc(-c3ccc(C(=O)O)cc3C)o2)C1=O [Compound 121, 4-[5-(3-Ethoxycarbonylmethyl-2,4-dioxo-thiazolidin-5-ylidenemethyl)furan-2-yl]-3-methylbenzoic acid] | > 50 | * (50 < *) |  |  | 
O=C(O)c1ccc(Cl)c(-c2ccc(/C=C3/NC(=O)N(Cc4ccccc4F)C3=O)o2)c1 [Compound 72, 4-Chloro-3-{5-[1-(2-fluorobenzyl)-2,5-dioxo-imidazolidin-4-ylidenemethyl]furan-2-yl}benzoic acid] |  |  |  |  | activity at 50 µM [1, 3]: 0 to 10%; NGF Activity % Maximal Binding ([2]; Table 2): X (40 < X < 50)
Cc1ccc(-c2ccc(C=C3C(=O)NC(=S)NC3=O)o2)cc1[N+](=O)[O-] [Compound 106, 5-[5-(4-Methyl-3-nitrophenyl)furan-2-ylmethylene]-2-thioxo-dihydro-pyrimidine-4,6-dione] |  | * (50 < *) |  |  | activity at 50 µM [1]: > 50%
CCCSC1=NC(=Cc2ccc(-c3ccc([N+](=O)[O-])cc3Cl)o2)C(=O)S1 [Compound 62, 4-[5-(2-Chloro-4-nitrophenyl)furan-2-ylmethylene]-2-propylsulfanyl-4H-thiazol-5-one] |  |  | 40 to 50 | * (50 < *) | 
Cc1ccc(C(=O)O)cc1-c1ccc(/C=C2/NC(=O)N(c3ccccc3)C2=O)o1 [Compound 16, 3-[5-(2,5-Dioxo-1-phenyl-imidazolidin-4-ylidenemethyl)furan-2-yl]-4-methylbenzoic acid] |  |  | 0 to 10 | * (50 < *) | 
O=C1NC(=Cc2ccc(-c3ccc(Cl)c([N+](=O)[O-])c3)o2)C(=O)N1c1ccccc1 [Compound 127, 5-[5-(4-Chloro-3-nitrophenyl)furan-2-ylmethylene]-3-phenyl-imidazolidine-2,4-dione] | > 50 | * (50 < *) |  |  | 
Cc1ccc(N2NC(=O)/C(=C/c3ccc(-c4ccc(S(N)(=O)=O)cc4)o3)C2=O)cc1 [Compound 102, 4-[5-(3,5-Dioxo-1-p-tolyl-pyrazolidin-4-ylidenemethyl)furan-2-yl]benzenesulfonamide] | > 50 | * (50 < *) |  |  | 
O=C1NC(=S)N/C1=C/c1ccc(-c2ccc(C(=O)O)c(Cl)c2)o1 [Compound 108, 2-Chloro-4-[5-(5-oxo-2-thioxo-imidazolidin-4-ylidenemethyl)furan-2-yl]benzoic acid] | > 50 | * (50 < *) |  |  | 
COC(=O)c1ccc(-c2ccc(C=C3C(=O)NC(=S)NC3=O)o2)cc1 [Compound 19, 4-[5-(4,6-Dioxo-2-thioxo-tetrahydro-pyrimidin-5-ylidenemethyl)furan-2-yl]benzoic acid methyl ester] |  |  |  | * (50 < *) | activity at 50 µM [1]: 0 to 10%
O=C(O)c1cc(-c2ccc(/C=C3\NC(=O)N(Cc4ccc(F)cc4)C3=O)o2)ccc1Cl [Compound 28, 2-Chloro-5-{5-[1-(4-fluorobenzyl)-2,5-dioxo-imidazolidin-4-ylidenemethyl]furan-2-yl}benzoic acid] |  |  | 10 to 20 | * (50 < *) | 
CCN1C(=O)S/C(=C\c2ccc(-c3ccc([N+](=O)[O-])cc3)o2)C1=O [Compound 110, 3-Ethyl-5-[5-(4-nitrophenyl)furan-2-ylmethylene]-thiazolidine-2,4-dione] | > 50 | * (50 < *) |  |  | 
O=C1NC(=O)N(Cc2ccccc2)C(=O)/C1=C/c1ccc(-c2cccc(C(=O)O)c2)o1 [Compound 122, 3-[5-(1-benzyl-2,4,6-trioxo-tetrahydro-pyrimidin-5-ylidenemethyl)furan-2-yl]benzoic acid] |  | * (50 < *) |  |  | activity at 50 µM [1]: > 50%
O=C(O)CN1C(=O)C(=Cc2ccc(-c3ccc([N+](=O)[O-])cc3)o2)SC1=S [Compound 38, {5-[5-(4-Nitrophenyl)furan-2-ylmethylene]-4-oxo-2-thioxo-thiazolidin-3-yl}-acetic acid] |  |  | 20 to 30 | * (50 < *) | 
O=C(O)CCN1C(=O)C(=Cc2ccc(-c3ccc([N+](=O)[O-])cc3)o2)SC1=S [Compound 10, 3-{5-[5-(4-Nitrophenyl)furan-2-ylmethylene]-4-oxo-2-thioxo-thiazolidin-3-yl}-propionic acid] |  |  | 0 to 10 | * (50 < *) | 
Cc1cccc(N2NC(=O)C(=Cc3ccc(-c4ccc(C(=O)O)cc4)o3)C2=O)c1 [Compound 82, 4-[5-(3,5-Dioxo-1-m-tolyl-pyrazolidin-4-ylidenemethyl)furan-2-yl]benzoic acid] |  |  |  |  | activity at 50 µM [1, 3]: 20 to 30%; NGF Activity % Maximal Binding ([2]; Table 2): X (40 < X < 50)
NS(=O)(=O)c1cccc(-c2ccc(/C=C3/SC(=S)N(CC(=O)O)C3=O)o2)c1 [Compound 74, {4-oxo-5-[5-(3-sulfamoylphenyl)furan-2-ylmethylene]-2-thioxo-thiazolidin-3-yl}-acetic acid] |  |  |  |  | activity at 50 µM [1, 3]: 0 to 10%; NGF Activity % Maximal Binding ([2]; Table 2): X (40 < X < 50)
Cc1cc([N+](=O)[O-])ccc1-c1ccc(C=C2SC(=S)NC2=O)o1 [Compound 7, 5-[5-(2-Methyl-4-nitrophenyl)furan-2-ylmethylene]-2-thioxo-thiazolidin-4-one] |  |  | 0 to 10 | * (50 < *) | 
O=C1NC(=S)N/C1=C/c1ccc(-c2ccc(Cl)c([N+](=O)[O-])c2)o1 [Compound 93, 5-[5-(4-Chloro-3-nitrophenyl)furan-2-ylmethylene]-2-thioxo-imidazolidin-4-one] | > 50 | * (50 < *) |  |  | 
Cc1cc(-c2ccc(C=C3SC(=S)N(CC(=O)O)C3=O)o2)ccc1[N+](=O)[O-] [Compound 15, {5-[5-(3-Methyl-4-nitrophenyl)furan-2-ylmethylene]-4-oxo-2-thioxo-thiazolidin-3-yl}-acetic acid] |  |  | 0 to 10 |  | 
